Results taken from US7517884B2 (Kalypsys Inc., priority 1998, dated 2009).

Test system: Diet-Induced Obesity (DIO) in Mice
Test: Model of Diet-Induced Obesity (DIO) in mice, dose ranging study
Assay type: in vivo, C57B1/6j mice
Settings: HFD, 1.5 mg/kg BID
Text: Evaluation of Pharmacological Efficacy of a Compound of the Invention in a Model of Diet-Induced Obesity (DIO) in Mice
Metabolic syndrome in humans is characterized by abdominal obesity, high triglycerides, impaired fasting glucose and hyperinsulinemia. In the DIO model, mice are fed high fat diet (HFD, Research diet D12492, Research Diet, NJ) diet (58% lard) for the entire period of the study. Compared to normal chow (NC, Harlan-Tekland #8604, WI) fed animals the HF fed mice develop several features of metabolic syndrome such as, hypertriglyceridemia, hyperinsulinemia and mild hyperglycemia, as early as two weeks, on this diet. […] This model was used to evaluate the pharmacological effects of a compound of the invention selected from the group consisting of Examples 1-141 (referred to for the purposes of this study as “Compound (I)”) in mitigating several features of HFD induced metabolic syndrome in rodents.
C57B1/6j mice (n=5) were fed ad libitum with either the HFD (58% fat) or NC (5%) diet for 3 weeks prior to start of experiment, and throughout the course of the experiment (45 days). Starting on Day 1, mice were dosed BID with either Compound (I)+vehicle, vehicle alone, or GW501516, a known PPARδ modulator in clinical development by Glaxo-Wellcome, for the entire period of the study. Animals were the assessed for body weight gain, food intake, triglyceride (TG), insulin, and glucose levels under fasting and postprandial (PP) conditions. Animals were weighed twice weekly in the morning to determine body weight gain. Plasma or serum was separated from whole blood (Sarstedt) and TG levels were assayed with a TG kit (Thermo Electron Corporation, TX). Plasma insulin levels were assayed using the ultrasensitive mouse Insulin ELISA immunoassay (American Laboratory Products Company). Total cholesterol, HDLc and LDLc was measured to evaluate pharmacological efficacy at various time points during the study and serum transaminases were measured to evaluate any potential toxicity of the compound. These measurements were performed with a chemistry analyzer at Labcorp of America, NC.

For `Cc1cc(SCc2sc(-c3ccc(C(F)(F)F)cc3)nc2C)ccc1OCC(=O)O` [GW516], the “% change in body weight (d0 vs d40)” value was 10.6%, the Insulin was 1.3 ± 0.3 ng/mL and the TG was 268 ± 56 mg/dL.
